In patent US20100130585A1, “METHODS AND COMPOSITIONS FOR INVESTIGATION AND TREATMENT OF CANCER USING A G-PROTEIN COUPLED EICOSANOID RECEPTOR” (priority 2005, published 2010):
Entries after “also recorded” stand apart in the source; their conditions may differ.

Columns and labels:
[1] = test system: prostate cancer cells; settings: exogenous metabolite, previous work [7, 8, 17]; cited from earlier work
[2] = test system: 5-LOX; assay: Production of 5-oxoETE in PC3 cells measured by LC/MS; format: cell-based, human; settings: 10 micromolar, two hours at 37 degree C, control cells 11 picograms per ml
Experimental: We also measured the production of 5-oxoETE in PC3 prostate cancer cells by liquid chromatography/mass spectrometry “(LC/MS”) to assess whether prostate cancer cells constitutively produce 5-oxoETE as a survival factor. […] PC3 prostate cancer cells (2 million per plate) were plated in 6 ml RPMI medium in serum-free medium for 24 hours. On the next day cells were treated with 10 micromolar MK591 (a specific 5-LOX inhibitor) for two hours at 37 degree C., or cells were left untreated. The media were collected, eicosanoids extracted, and measured by LC/MS.

[3] = test system: PC3 cells; assay: Killing of PC3 cells by 5-LOX inhibitor; format: cell-based, human; settings: 10 micromolar

Compound | prevention of apoptosis triggered by 5-LOX inhibition [1] | eicosanoids (5-oxoETE) in serum-free culture medium [2] [picograms per ml] | killing of PC3 cells [3]
CCCCC/C=C\C/C=C\C/C=C\C=C\[C@@H](O)CCCC(=O)O [5-HETE, 5(S)-hydroxyeicosatetraenoic acid] | prevented | – | –
CCCCC/C=C\C/C=C\C/C=C\C=C\C(=O)CCCC(=O)O [5-oxoETE, 5-oxoeicosatetraenoic acid] | prevented; also recorded: more effective | – | –
CC(C)(C)Sc1c(CC(C)(C)C(=O)O)n(Cc2ccc(Cl)cc2)c2ccc(OCc3ccc4ccccc4n3)cc12 [MK591] | – | 0 | kills PC3 cells
